{"source": "patent US12643924B2", "about": "“Cardiac-specific targeting-peptide (CTP), compositions, and uses thereof” (University of Pittsburgh—Of the Commonwealth System of …, priority 2018, dated 2026)", "key": {"[1]": {"system": "myocardial tissue", "test": "Fluorescence intensity in myocardial tissue 15 minutes after injection of fluorescently-labeled CTP variants", "format": "in vivo", "settings": "mice; for fluorescence intensity in myocardial tissue compared to CTP: FIG. 6B", "description": "Additionally, fluorescently-labeled CTP variants (CTP, CTP-B, H4A, P2A) or fluorescently-labeled random peptide sequence (RAN) were injected into mice and fluorescence intensity was measured in fixed myocardial tissue. Mice were injected with peptides, and, 15 minutes after injection, heart tissue was dissected, cryosectioned, stained, and analyzed for fluorescence intensity."}, "[2]": {"system": "H9C2 cells", "test": "Alanine scan: percentage of Cy5.5 positive H9C2 cells by FACS", "format": "cell-based, rat", "settings": "percentage of Cy5.5 positive H9C2 cells normalized to non-mutated peptide (SEQ ID NO: 1); Cy5.5-conjugated peptides, 30 minutes at 37° C.", "description": "(§1) Variants of SEQ ID NO: 1 in which every amino acid was systematically mutated to alanine were synthesized in the University of Pittsburgh Peptide Synthesis Facility. Each variant was conjugated to the Cyanine5.5 fluorescent dye (Cy5.5). The rat cardiomyocyte cell line H9C2 (ATCC, catalogue #: CRL-1446) was incubated for 30 minutes at 37° C. with Dimethyl sulfoxide (DMSO) as a control, or the alanine peptide variants. Cells were then washed 3 times with PBS, trypsinized and resuspended, stained for live/dead cells, and then FACS sorted for Cy5.5 positive cells.\nThe percentage of Cy5.5 positive H9C2 cells, normalized to the non-mutated peptide (SEQ ID NO: 1), for each peptide variant is summarized in Table 2 below."}, "[3]": {"system": "H9C2 cells", "test": "Fluorescence activated cell sorting of H9C2 cells after 30 min incubation with 10 uM peptide (median Cy5.5)", "format": "cell-based, rat", "settings": "for Corrected Median Cy5.5 / Raw Median Cy5.5: H9C2 cells, 30 min incubation, 10 uM peptide, single replicates; for Corrected Median Cy5.5: corrected for peptide fluorescence; for Average Correction: average of corrected median Cy5.5, H9C2 cells, FIG. 1C", "description": "as §1"}, "[4]": {"system": "H9C2 cells, MEF cells, 3T3 cells", "test": "Transduction of cell lines by Cy5.5 labeled N- and C-terminal CTP variants (FACS)", "format": "cell-based", "settings": "across all three cell lines; FIGS. 2A-2D", "description": "(§2) FIGS. 2A-2E are a series of bar graphs that show the transduction efficiencies and viability of various cell types incubated with Cy5.5 labeled cardiac-specific targeting peptide variants. […] CTP (Full Length): NH2-APWHLSSQYSRT-COOH (SEQ ID NO: 1); CTP-A: NH2-APWHLS-COOH (SEQ ID NO: 24); CTP-B: NH2-SQYSRT-COOH (CTP6aa; SEQ ID NO: 5); cyclic: cyclized version of the indicated peptide; CTP-Random: random, linear, 12-amino acid peptide (RAN: NH2-STLMKFCYVEQN-COOH ((SEQ ID NO: 26)); DMSO: Dimethyl sulfoxide.\n(§3) Solid-phase peptide synthesis were used to synthesize the full-length form (NH2-APWHLSSQYSRT-COOH (SEQ ID NO: 1)), as well as an N-terminus 6 amino acid called CTP-A (NH2-APWHLS-COOH (SEQ ID NO: 24)), or as CTP6aa (NH2-SQYSRT-COOH (SEQ ID NO: 5)) peptides. Full length and CTP6aa were also synthesized in a cyclic forms. A random, linear, 12-amino acid long peptide (RAN: NH2-STLMKFCYVEQN-COOH (SEQ ID NO: 26)) was also synthesized to serve as control. All peptides were fluorescently labeled with Cyanine5.5 (Cy5.5). Isolated, beating neonatal mouse cardiomyocytes (CMC) were incubated with 10 μM of the peptides at 37° C. for 30 minutes, washed extensively with PBS and confocal microscopy performed. […]"}, "[5]": {"system": "H9C2 cells and MEFs", "format": "cell-based", "settings": "compared to full-length peptide and DMSO control; FIG. 2E", "description": "as §2, §3"}}, "note": "Where no end group is shown, it is not given here."}
{"substance": "AAWHLSSQYSRT (also: Cy5.5 conjugate, site not given here) [P2A, alanine variant of CTP, Cy5.5 conjugated]", "values": [{"measurement": "fluorescence intensity in myocardial tissue compared to CTP", "setting": "[1]", "value": "significantly greater"}, {"measurement": "% transduction of H9C2 Cells", "setting": "[2]", "value": 59.15, "unit": "%"}, {"measurement": "Corrected Median Cy5.5", "setting": "[3]; listed as P2A_001", "value": 9901.8}, {"measurement": "Corrected Median Cy5.5", "setting": "[3]; listed as P2A_002", "value": 9298.9}, {"measurement": "Corrected Median Cy5.5", "setting": "[3]; listed as P2A_003", "value": 9488.4}, {"measurement": "Raw Median Cy5.5", "setting": "[3]; listed as P2A_001", "value": 9449}, {"measurement": "Raw Median Cy5.5", "setting": "[3]; listed as P2A_002", "value": 8834}, {"measurement": "Raw Median Cy5.5", "setting": "[3]; listed as P2A_003", "value": 9014}, {"measurement": "Average Correction", "setting": "[3]", "value": 9535.0}]}
{"substance": "APWHLSSQYSRT (also: Cy5.5 label, site not given here) [CTP, 12-amino acid cardiac-specific targeting peptide, tested conjugated to Cy5.5]", "values": [{"measurement": "% transduction of H9C2 Cells", "setting": "[2]", "value": 100, "unit": "%"}, {"measurement": "Corrected Median Cy5.5", "setting": "[3]; listed as CTP_001", "value": 5652.0}, {"measurement": "Corrected Median Cy5.5", "setting": "[3]; listed as CTP_002", "value": 6028.0}, {"measurement": "Corrected Median Cy5.5", "setting": "[3]; listed as CTP_003", "value": 6308.0}, {"measurement": "Raw Median Cy5.5", "setting": "[3]; listed as CTP_001", "value": 5652}, {"measurement": "Raw Median Cy5.5", "setting": "[3]; listed as CTP_002", "value": 6028}, {"measurement": "Raw Median Cy5.5", "setting": "[3]; listed as CTP_003", "value": 6308}, {"measurement": "Average Correction", "setting": "[3]", "value": 5996}]}
{"substance": "SQYSRT (Description of Artificial Sequence: Cardiac Targeting Peptide (CTP-B)) [linear six C-terminal amino acid cardiac-specific targeting peptide]", "values": [{"measurement": "transduction compared to the full-length peptide", "setting": "[4]", "value": "at least as well as the full-length peptide"}, {"measurement": "uptake compared to random peptide sequence and CTP", "setting": "[1]", "value": "superior uptake"}, {"measurement": "fluorescence intensity in myocardial tissue compared to CTP", "setting": "[1]", "value": "significantly greater"}, {"measurement": "cell viability", "setting": "[5]", "value": "did not alter cell viability"}, {"measurement": "Corrected Median Cy5.5", "setting": "[3]; listed as CTP-B_001", "value": 5663.7}, {"measurement": "Corrected Median Cy5.5", "setting": "[3]; listed as CTP-B_002", "value": 6469.2}, {"measurement": "Corrected Median Cy5.5", "setting": "[3]; listed as CTP-B_003", "value": 6240.8}, {"measurement": "Raw Median Cy5.5", "setting": "[3]; listed as CTP-B_001", "value": 4711}, {"measurement": "Raw Median Cy5.5", "setting": "[3]; listed as CTP-B_002", "value": 5381}, {"measurement": "Raw Median Cy5.5", "setting": "[3]; listed as CTP-B_003", "value": 5191}, {"measurement": "Average Correction", "setting": "[3]", "value": 6124.6}]}
